# Data: patent US9371265B2, “Compositions and methods related to inhibitors of JAK kinase” (EP PHARMA, INC., priority 2012, dated 2016)
# Assays:
# TRKA = TRKA (Homo sapiens, UniProt P04629); experiment: Kinase panel: TRKA; type: biochemical; details: 10 μM EP009
# Description: (§1) Achieving JAK3 selectivity remains a significant challenge in the development of new small molecules for the treatment of cancer and immune-derived diseases. As such, the inventors employed cell-based screening assays of small-molecule libraries based upon the chemical scaffold of the established JAK3 inhibitor NC1153 (Stepkowski et al., J Immunol. (2005), 175(7):4236-4246) EP009 (FIG. 2A) was selected as a lead compound due to improved intrinsic stability (>95% purity in various solvents at 37° C. for 24 hours; FIG. 3) and high-degree of JAK3 selectivity. To test JAK3 versus JAK2 specificity of EP009, the IL-2/JAK3-dependent Kit225, and IL-3/JAK2-dependent BaF/3 cell lines were used. Kit225 and BaF/3 cells growing in the presence of IL-2 or IL-3, respectively, were treated with ascending concentrations of EP009 for 12 hours and cellular JAK3 and JAK2 tyrosine phosphorylation levels detected by Western blot analysis (FIGS. 2B and 2C). Following densitometric analysis, EP009 was determined to dose-dependently reduce IL-2-mediated JAK3 tyrosine phosphorylation with a cellular 50% inhibitory concentration (IC50) between 10 and 20 μM (FIG. 2B). […] To globally evaluate specificity, the inhibitory activity of EP009 was measured against a panel of protein kinases distributed throughout the kinome using the scanEDGE profiling service (KINOMEscan). […]
# JNK1/2 = experiment: Phospho-JNK1/2 in SU-DHL-1 cells (Luminex multiplex); type: cell-based, human; details: 24 hours, dose-dependent
# Description: FIGS. 8A-8F. Effect of EP009 on ALCL cells is mediated through selective activation of ERK1/2 and JNK1/2 stress signaling pathways, and inhibition of p70 S6 kinase growth signaling pathways. SU-DHL-1 cells were treated with vehicle (PBS) or increasing amounts of EP009 (0-50 μM) for 24 hours. Cells were then lysed, clarified, and subjected to Luminex multiplex analysis to detect phosphorylated (A) ERK1/2, (B) JNK1/2, (C) p70 S6 kinase, (D) IκBα, (E) CREB, and (F) p38. Values represent mean fluorescence intensity (MFI) normalized to corresponding GAPDH MFI, while error bars represent the standard deviation (n=2). Representative data from two independent experiments are shown. Statistical significance was determined using Student's t-test. (*, p<0.05).
# The MILLIPLEX MAP 8-plex Multi-Pathway Signaling Phosphoprotein kit (Millipore) was used to detect phosphorylated ERK1/2 (Thr185/Tyr187), STAT3 (Ser727), JNK1/2 (Thr183/Tyr185), p70 S6 kinase (Thr412), IκBα (Ser32), STAT5A/B (Tyr694/699), CREB (Ser133), and p38 (Thr180/Tyr182). The MILLIPLEX MAP 5-plex STAT Phosphoprotein kit (Millipore) was used to detect phosphorylated STAT1 (Tyr701), STAT2 (Tyr690), STAT3 (Tyr705), STAT5A/B (Tyr694/699), and STAT6 (Tyr641). The MILLIPLEX MAP Human Apoptosis 3-plex kit (Millipore) was used to detect cleaved PARP, cleaved Caspase 3, and total GAPDH for protein normalization.
# HEPG2 = HEPG2 cell viability (MTS); type: cell-based, human; details: 72 hours, concentrations giving complete loss of JAK3-dependent cell viability (0-10 μM)
# Description: FIGS. 2A-2F. Selective inhibition of JAK3 by EP009 results in loss of JAK3-dependent tumor cell line viability with no detectable off-target effects in key cell types. (A) Chemical structure of EP009 (M.W. 224.34). (B) Kit225 or (C) BaF/3 cells cultured in the presence of IL-2 or IL-3, respectively, were treated with vehicle (PBS; lane a) or increasing amounts of EP009 (0-50 μM; lanes b-h) for 12 hours. Cells were then lysed, clarified, and immunoprecipitated (IP) with anti-JAK3 (α-JAK3) or anti-JAK2 (α-JAK2), and subjected to Western blot (WB) analysis with anti-phosphotyrosine (α-pY). Blots were stripped and reprobed with corresponding antibody to verify equivalent protein loading. […] (E) Kit225 or BaF/3 cells were cultured with increasing amounts of EP009 (0-10 μM) for 72 hours and cell viability measured with the MTS tetrazolium salt assay. Values represent mean absorbance (OD490-OD650 nm) normalized to vehicle (PBS) treated control cells, while error bars represent the standard deviation (n=3). (F) HEK293, HEPG2, or naïve primary human PBMCs were cultured with increasing amounts of EP009 (0-10 μM) for 72 hours and cell viability measured with the MTS tetrazolium salt assay. Values represent mean absorbance (OD490-OD650 nm) normalized to vehicle (PBS) treated control cells, while error bars represent the standard deviation (n=3). […]
# CDK11 = CDK11 (Homo sapiens, UniProt Q9BWU1); experiment: Kinase panel: CDK11; type: biochemical; details: 10 μM EP009
# Description: as §1
# BTK = BTK (Homo sapiens, UniProt Q06187); experiment: Kinase panel: BTK; type: biochemical; details: 10 μM EP009
# Description: as §1
# Chain of TRKA (P04629 33-796): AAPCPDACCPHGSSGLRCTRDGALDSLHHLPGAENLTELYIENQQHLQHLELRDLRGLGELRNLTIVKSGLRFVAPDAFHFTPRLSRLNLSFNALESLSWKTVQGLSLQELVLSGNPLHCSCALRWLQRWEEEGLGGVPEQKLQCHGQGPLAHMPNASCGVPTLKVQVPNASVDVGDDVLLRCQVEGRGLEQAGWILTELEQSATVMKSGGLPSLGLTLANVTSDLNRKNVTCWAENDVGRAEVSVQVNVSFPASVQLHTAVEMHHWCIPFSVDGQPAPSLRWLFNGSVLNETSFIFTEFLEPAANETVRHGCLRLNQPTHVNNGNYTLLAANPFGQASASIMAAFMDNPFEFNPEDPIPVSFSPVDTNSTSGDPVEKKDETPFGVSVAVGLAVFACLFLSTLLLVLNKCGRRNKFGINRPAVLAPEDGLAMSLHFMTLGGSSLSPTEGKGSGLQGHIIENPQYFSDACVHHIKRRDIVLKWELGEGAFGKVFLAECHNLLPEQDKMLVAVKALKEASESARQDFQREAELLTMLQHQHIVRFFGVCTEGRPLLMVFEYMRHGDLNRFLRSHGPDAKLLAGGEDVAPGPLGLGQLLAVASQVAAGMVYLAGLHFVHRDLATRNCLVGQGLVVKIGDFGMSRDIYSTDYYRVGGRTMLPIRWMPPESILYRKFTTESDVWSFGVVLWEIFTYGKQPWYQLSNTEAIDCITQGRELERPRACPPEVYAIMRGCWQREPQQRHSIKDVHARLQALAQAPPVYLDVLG
# Chain of BTK (Q06187 whole entry): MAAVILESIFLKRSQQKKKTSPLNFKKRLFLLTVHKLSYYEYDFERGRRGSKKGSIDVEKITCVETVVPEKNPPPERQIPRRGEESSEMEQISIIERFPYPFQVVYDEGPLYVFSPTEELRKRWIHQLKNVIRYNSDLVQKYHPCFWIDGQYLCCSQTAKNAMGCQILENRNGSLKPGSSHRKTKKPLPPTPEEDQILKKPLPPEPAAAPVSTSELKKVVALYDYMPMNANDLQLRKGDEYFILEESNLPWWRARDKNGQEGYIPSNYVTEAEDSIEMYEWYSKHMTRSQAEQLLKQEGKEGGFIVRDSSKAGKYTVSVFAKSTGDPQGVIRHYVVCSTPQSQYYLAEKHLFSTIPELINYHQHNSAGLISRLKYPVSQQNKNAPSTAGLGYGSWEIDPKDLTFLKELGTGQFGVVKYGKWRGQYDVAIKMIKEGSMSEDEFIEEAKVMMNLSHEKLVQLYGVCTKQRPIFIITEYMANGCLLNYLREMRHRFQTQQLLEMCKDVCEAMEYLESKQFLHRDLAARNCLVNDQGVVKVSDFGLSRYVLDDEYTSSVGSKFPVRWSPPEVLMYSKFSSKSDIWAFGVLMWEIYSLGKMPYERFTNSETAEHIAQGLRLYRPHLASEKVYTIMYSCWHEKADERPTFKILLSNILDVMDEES
# Chain of CDK11 (Q9BWU1 whole entry): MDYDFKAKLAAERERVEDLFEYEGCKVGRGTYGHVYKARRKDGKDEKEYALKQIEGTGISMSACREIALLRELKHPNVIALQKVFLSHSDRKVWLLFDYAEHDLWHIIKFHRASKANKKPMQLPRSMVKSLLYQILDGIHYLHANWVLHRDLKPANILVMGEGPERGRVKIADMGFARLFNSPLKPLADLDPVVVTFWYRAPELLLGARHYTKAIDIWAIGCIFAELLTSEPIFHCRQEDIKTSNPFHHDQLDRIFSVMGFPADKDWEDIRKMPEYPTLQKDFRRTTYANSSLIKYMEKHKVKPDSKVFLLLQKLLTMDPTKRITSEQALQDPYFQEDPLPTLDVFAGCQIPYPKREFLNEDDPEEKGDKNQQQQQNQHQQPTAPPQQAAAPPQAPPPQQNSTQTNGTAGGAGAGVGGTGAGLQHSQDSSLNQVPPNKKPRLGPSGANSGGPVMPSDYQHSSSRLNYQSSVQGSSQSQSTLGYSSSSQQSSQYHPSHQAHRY
smiles,measurement,setting,value
"C=C1CCCCCCCCCC(CO)C1=O (centres unmarked) [EP009, 2-(Hydroxymethyl)-12-methylenecyclododecanone]",Kinase Activity (% of Control),TRKA,65 % of Control
same,JNK1/2 phosphorylation,JNK1/2,induced phosphorylation and activation
same,effect on HEPG2 cell viability,HEPG2,no detectable loss of cell viability
same,Kinase Activity (% of Control),CDK11,100 % of Control
same,Kinase Activity (% of Control),BTK,91 % of Control
